Measured values reported in article PMC8187479, “Sugar phosphate activation of the stress sensor eIF2B” (Nature Communications, 2021).

molecular target: T1, eIF2Bα (Homo sapiens, UniProt Q14232); assay: MIDAS (mass spectrometry integrated with equilibrium dialysis) metabolite binding screen; settings: MIDAS metabolite binding screen with eIF2Bα; sheet "eIF2Ba"
T1 construct: made in house; host or cells: E. coli BL21(DE3)
T1 sequence (Q14232 1-305): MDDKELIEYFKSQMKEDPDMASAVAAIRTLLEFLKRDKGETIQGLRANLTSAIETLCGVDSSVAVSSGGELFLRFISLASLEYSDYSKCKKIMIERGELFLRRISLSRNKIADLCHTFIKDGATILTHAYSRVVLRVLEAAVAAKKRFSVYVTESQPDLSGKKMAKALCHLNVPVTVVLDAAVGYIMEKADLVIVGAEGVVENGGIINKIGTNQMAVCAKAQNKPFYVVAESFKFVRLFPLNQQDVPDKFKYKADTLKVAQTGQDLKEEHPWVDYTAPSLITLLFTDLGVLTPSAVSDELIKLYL
Procedure: Metabolites were combined into four defined screening pools. […] To the reverse side, 300 μL of 50 μM per metabolite pool was aliquoted and sealed (metabolite chamber). Loaded dialysis plates were placed in the dark at 4 °C on a rotating shaker (120 rpm) and incubated for 40 h. Post-dialysis, metabolites were isolated from each chamber by cold methanol extraction. Each sample was analyzed in technical triplicate by FIA-MS on a SCIEX X500R QTOF MS with interspersed blanks injections. The input metabolite pools were assayed at the beginning, middle, and end of each MS method batch for QC and normalization.
MIDAS FIA-MS spectra were processed in SCIEX OS 1.6 software to determine metabolite abundances by integrating the mean area under the curve for each extracted ion chromatogram. For each dialysis replicate, log2(fold change) for each metabolite was calculated as the difference between the log2 abundance in the protein chamber and metabolite chamber. For each technical triplicate, up to one outlier was removed using a z-score cutoff of five (<0.1% of observations). The corrected technical replicates were collapsed to one mean fold-change summary per protein-metabolite pair. To remove fold-change variation that was not specific to a given metabolite-protein pair, the first three principal components of the total screening dataset were removed on a per metabolite pool basis by subtracting the projection of the first 3 principal components, creating log2(corrected fold change). Protein-metabolite z-scores were determined by comparing the target protein-metabolite log2(corrected fold change) to a no-signal model for that metabolite using measures of the central tendency (median) and standard deviation (extrapolated from the 25–75% quantiles), which are robust to the signals in the tails of a metabolite’s fold-change distribution. Z-scores were false-discovery rate controlled using Storey’s q-value (qvalue, R) and protein-metabolite interactions with q-values < 0.1 were considered significant.

Compound | log2(corrected fold change)
NCCCC(=O)O [4-Aminobutanoate] | 0.0213
O=C(O)[C@@H](O)[C@@H](O)[C@H](O)[C@@H](O)C(=O)O [D-Saccharic acid] | -0.01904
NC(=O)NCCC[C@H](N)C(=O)O [L-Citrulline] | -0.01086
OC[C@H]1O[C@@H](n2cnc3c(O)nc(O)nc32)[C@H](O)[C@@H]1O [Xanthosine] | 0.0001312
CCCCCC(=O)NCC(=O)O [N-Hexanoyl-glycine] | -0.05912
O=C(O)CCCC(=O)C(=O)O [2-Oxoadipic acid] | -0.03769
CCC(C)C(O)C(=O)O (centres unmarked) [2-Hydroxy-3-methylpentanoic acid] | -0.0302
O=C1O[C@H](CO)[C@@H](O)[C@H](O)[C@H]1O [Glucono delta-lactone] | 0.01629
Nc1c(O)cccc1C(=O)CC(N)C(=O)O (racemic) [3-Hydroxy-DL-kynurenine] | 0.08675
CC(C)(COP(=O)(O)OP(=O)(O)OC[C@H]1O[C@@H](n2cnc3c(N)ncnc32)[C@H](O)[C@@H]1OP(=O)(O)O)[C@@H](O)C(=O)NCCC(=O)NCCS [Coenzyme A] | 0.05668
Nc1ccn([C@@H]2O[C@H](COP(=O)(O)OP(=O)(O)OCC(O)CO)[C@@H](O)[C@H]2O)c(=O)n1 (some centres unmarked) [CDP-Glycerol] | 0.002705
O=C[C@H](O)[C@@H](O)[C@H](O)[C@H](O)C(=O)O [D-Glucuronic acid] | -0.01884
O=C(O)c1cc(O)ccc1O [2,5-Dihydroxybenzoic acid] | 0.05271
CC(=O)N[C@@H](CCCCN)C(=O)O [Nalpha-Acetyl-L-lysine] | -0.03422
CC(O)(CC(=O)O)CC(=O)O [3-Hydroxy-3-methylglutaric acid] | 0.0406
C[C@H](O)[C@@H](O)[C@@H](O)[C@H](O)C(=O)O [6-Deoxy-L-galactonic acid] | -0.02256
N[C@@H](CCSC[C@H](N)C(=O)O)C(=O)O [L-Cystathionine] | -0.03443

Compound | log2(corrected fold change)
C[C@@H](O)[C@H](N)C(=O)O [L-Threonine] | -0.05619
N[C@@H](CS(=O)(=O)O)C(=O)O [L-Cysteic acid] | 0.001606
Nc1nc2c(ncn2[C@H]2C[C@H](O)[C@@H](COP(=O)(O)OP(=O)(O)O)O2)c(=O)[nH]1 [2-Deoxyguanosine 5-diphosphate] | -0.09804
Cc1cc2nc3c(=O)[nH]c(=O)nc-3n(C[C@H](O)[C@H](O)[C@H](O)COP(=O)(O)O)c2cc1C [Riboflavin 5-monophosphate] | 0.06004
C[C@H](N)C(=O)O [L-Alanine] | 0.0004222
O=C(O)[C@H]1C[C@@H](O)CN1 [Cis-4-Hydroxy-D-proline] | 0.008003
O=C(O)c1ccoc1 [3-Furoic acid] | -0.01812
O=C(O)CO [Glycolic acid] | -0.06864
O=c1ccn([C@H]2C[C@H](O)[C@@H](CO)O2)c(=O)[nH]1 [2-Deoxyuridine] | 0.04824
O=C(O)C(O)CO (centres unmarked) [2,3-Dihydroxypropanoic acid] | 0.03679
O=C(O)[C@@H]1C[C@@H](O)CN1 [Trans-4-Hydroxy-L-proline] | 0.008003
CC(C)CC(=O)NCC(=O)O [N-Isovalerylglycine] | -0.07333
Nc1nc2c(ncn2[C@@H]2O[C@H](COP(=O)(O)OP(=O)(O)O)[C@@H](O)[C@H]2O)c(=O)[nH]1 [Guanosine 5-diphosphate] | -0.07145
CC(=O)NC1C(OP(=O)(O)OP(=O)(O)OCC2OC(n3ccc(=O)[nH]c3=O)C(O)C2O)OC(CO)C(O)C1O (centres unmarked) | -0.0409
Nc1ncnc2c1ncn2[C@@H]1O[C@H](COP(=O)(O)OS(=O)(=O)O)[C@@H](OP(=O)(O)O)[C@H]1O [3-Phosphoadenosine 5-phosphosulfate] | -0.003179
CC(=O)N[C@H]1C(OP(=O)(O)O)O[C@H](CO)[C@@H](O)[C@@H]1O (stereo partly drawn) [N-Acetyl-D-glucosamine 1-phosphate] | -0.08166
Cn1cncc1C[C@H](NC(=O)CCN)C(=O)O [Anserine] | -0.02715

same assay, conditions: MIDAS screen, sheet eIF2Ba; metabolites screened in pools 1-4; p-value and q-value given

Compound | log2(corrected fold change)
OCC(O)c1ccc(O)c(O)c1 (racemic) [DL-3,4-Dihydroxyphenyl glycol] | -0.07769
Nc1ncnc2c1ncn2[C@@H]1O[C@H](COP(=O)(O)OP(=O)(O)OP(=O)(O)OC[C@@H]2O[C@H](n3cnc4c(N)ncnc43)[C@@H](O)[C@H]2O)[C@@H](O)[C@H]1O [Diadenosine triphosphate] | -0.1669
O=C(O)C(=O)CS(=O)(=O)O [3-Sulfopyruvic acid] | -0.112
O=C[C@H](O)[C@@H](O)[C@H](O)CO [D-Xylose] | -0.1354
Phosphatidylcholine | -0.03855
O=C[C@H](O)[C@@H](O)[C@@H](O)[C@H](O)CO [D-Galactose] | -0.09045
NC(N)=O [Urea] | -0.06736
N[C@@H](CCC(=O)N[C@@H](CS)C(=O)O)C(=O)O [Gamma-Glu-Cys] | 0.1652
C[C@@H](CO)C(=O)O [(S)-Hydroxyisobutyrate] | 0.07137
NC(=O)c1ccc[n+]([C@@H]2O[C@H](COP(=O)([O-])O)[C@@H](O)[C@H]2O)c1 [Nicotinamide ribotide] | 1.511
O=c1ccn([C@H]2C[C@H](O)[C@@H](COP(=O)(O)O)O2)c(=O)[nH]1 [2-Deoxyuridine 5-monophosphate] | 0.2736
N[C@H](CCSSCC[C@@H](N)C(=O)O)C(=O)O (racemic) [DL-Homocystine] | 0.09463
NC(=O)C1=CN([C@@H]2O[C@H](COP(=O)(O)OP(=O)(O)OC[C@H]3O[C@@H](n4cnc5c(N)ncnc54)[C@H](OP(=O)(O)O)[C@@H]3O)[C@@H](O)[C@H]2O)C=CC1 [NADPH] | -0.8133
N[C@@H](Cc1ccc(O)c(I)c1)C(=O)O [3-Iodo-L-tyrosine] | 0.6259
CC(C)(COP(=O)(O)OP(=O)(O)OC[C@H]1O[C@@H](n2cnc3c(N)ncnc32)[C@H](O)[C@@H]1O)[C@@H](O)C(=O)NCCC(=O)NCCS [Dephosphocoenzyme A] | -0.1841
Nc1ccn([C@H]2C[C@H](O)[C@@H](CO)O2)c(=O)n1 [2-Deoxycytidine] | 0.344

Compound | log2(corrected fold change)
NC(=O)CCC(N)C(=O)O (stereo in doubt) [D-Glutamine] | 0.1976
Nc1ccn([C@H]2C[C@H](O)[C@@H](COP(=O)(O)O)O2)c(=O)n1 [2-Deoxy-5-cytidylic acid] | 0.04298
CC[C@H](N)C(=O)O [L-2-Aminobutyric acid] | -0.1029
O=C(O)CC(=O)C(=O)O [Oxaloacetic acid] | 0.1095
CC(=O)N[C@H]1[C@H](O[C@H]2[C@H](O)[C@@H](NC(C)=O)C(O)O[C@@H]2CO)O[C@H](CO)[C@@H](O)[C@@H]1O (some centres unmarked) [N,N-Diacetylchitobiose] | 0.08913
O=C(O)[C@H]1CCCN1 [D-Proline] | -0.05584
CC(C)C(=O)NCC(=O)O [Isobutyrylglycine] | -0.09012
COc1cc(C(O)C(=O)O)ccc1O (racemic) [DL-4-Hydroxy-3-methoxymandelic acid] | -0.08249
CCCCC[C@H](O)/C=C/[C@H]1[C@H](O)CC(=O)[C@@H]1C/C=C\CCCC(=O)O [Prostaglandin E2] | 0.05625
O=CC[C@H](O)[C@H](O)CO [2-Deoxy-D-ribose] | -0.2249
D-Glucose 6-phosphate | -0.1344
NCCc1ccc(O)cc1 [Tyramine] | 0.3274
NCCCC[C@H](N)C(=O)O [L-Lysine] | -0.06897
CC(C)[C@H](N)C(=O)O [L-Valine] | -0.07845
O=c1[nH]cnc2c1ncn2[C@@H]1O[C@H](COP(=O)(O)OP(=O)(O)OP(=O)(O)O)[C@@H](O)[C@H]1O [Inosine 5-triphosphate] | -0.2055
